Assay results as given in the supplement of paper PMC10307832.

Columns and labels:
Assay in all cases: relative viability (nuclei count vs DMSO), 5 days (fraction); higher = more cells survive
[1] = compound: CC1=CC=C(C=C1)C(=O)CN2C3=C(CCCC3)SC2=N [Pifithrin_alpha] + CC(=O)c1c(C)c2cnc(Nc3ccc(N4CCNCC4)cn3)nc2n(C2CCCC2)c1=O [Palbociclib] (partner 0.5 µM)
How it was run: (§1)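 One day after seeding in 1536-well plates, lung cancer cell lines were dosed by pin tool. Dosing was either single-drug or a fixed anchor-drug dose plus five library-drug doses (not always all listed) in √10 steps. After 5 days, nuclei were stained in one fix-and-stain step and counted on 4× images, and relative viability is the nuclei count of treated wells over that of vehicle wells, given as the median of duplicate plates.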

[2] = compound: CNC(=O)c1ccccc1Sc1ccc2c(/C=C/c3ccccn3)n[nH]c2c1 [Axitinib] + COc1cccc2cc(-c3nc([C@H]4CC[C@H](C(=O)O)CC4)n4ncnc(N)c34)[nH]c12 [OSI-027] (partner 0.5 µM)
How it was run: as §1

[3] = compound: CNC(=O)c1ccccc1Sc1ccc2c(/C=C/c3ccccn3)n[nH]c2c1 [Axitinib] + NC(=O)Nc1cc(-c2cccc(F)c2)sc1C(=O)N[C@H]1CCCNC1 [AZD7762] (partner 0.2 µM)
How it was run: as §1

[4] = compound: CC1=CC=C(C=C1)C(=O)CN2C3=C(CCCC3)SC2=N [Pifithrin_alpha] + Cc1nc(Nc2ncc(C(=O)Nc3c(C)cccc3Cl)s2)cc(N2CCN(CCO)CC2)n1 [Dasatinib] (partner 0.075 µM)
How it was run: as §1

| Cell Line | relative viability ([1]; first compound 1 µM) | relative viability ([1]; first compound 3.162 µM) | relative viability ([1]; first compound 10 µM) | relative viability ([1]; first compound 100 µM) | relative viability ([2]; first compound 0.005 µM) | relative viability ([2]; first compound 0.01581 µM) | relative viability ([2]; first compound 0.05 µM) | relative viability ([2]; first compound 0.1581 µM) | relative viability ([2]; first compound 0.5 µM) | relative viability ([3]; first compound 0.005 µM) | relative viability ([3]; first compound 0.01581 µM) | relative viability ([3]; first compound 0.05 µM) | relative viability ([3]; first compound 0.1581 µM) | relative viability ([3]; first compound 0.5 µM) | relative viability ([4]; first compound 1 µM) | relative viability ([4]; first compound 3.162 µM) | relative viability ([4]; first compound 10 µM) | relative viability ([4]; first compound 31.62 µM) | relative viability ([4]; first compound 100 µM) | relative viability ([1]; first compound 31.62 µM) |
| --- | --- | --- | --- | --- | --- | --- | --- | --- | --- | --- | --- | --- | --- | --- | --- | --- | --- | --- | --- | --- |
| LU99A | 0.39 | 0.445 | 0.387 | 0.453 | 0.314 | 0.317 | 0.342 | 0.289 | 0.304 | 0.433 | 0.451 | 0.397 | 0.39 | 0.415 | 0.385 | 0.651 | 0.609 | 0.369 | 0.583 |  |
| LXF-289 | 0.591 | 0.625 | 0.591 | 0.6 | 0.76 | 0.727 | 0.785 | 0.763 | 0.877 | 1.16 | 1.06 | 1.11 | 1.06 | 1.18 | 0.204 | 0.201 | 0.172 | 0.167 | 0.145 | 0.529 |
| NCI-H23 | 0.537 | 0.413 | 0.445 | 0.413 | 0.66 | 0.568 | 0.617 | 0.652 | 0.699 | 0.328 | 0.216 | 0.23 | 0.241 | 0.288 | 0.887 | 0.675 | 0.741 |  | 0.456 | 0.351 |
| NCI-H322M | 0.381 | 0.56 | 0.501 | 0.525 | 0.569 | 0.575 | 0.546 | 0.536 | 0.601 | 0.564 | 0.525 | 0.579 | 0.548 | 0.612 | 0.25 | 0.258 | 0.245 | 0.245 | 0.226 | 0.474 |
| NCI-H358 | 0.134 | 0.151 | 0.137 | 0.119 | 0.785 | 0.737 | 0.874 | 0.681 | 1.02 | 0.529 | 0.509 | 0.626 | 0.512 | 0.635 | 0.165 | 0.169 | 0.187 | 0.181 | 0.16 | 0.115 |
| NCI-H441 | 0.203 | 0.249 | 0.217 | 0.19 | 0.736 | 0.604 | 0.681 | 0.541 | 0.748 | 1.08 | 1.02 | 1.24 | 1.09 | 1.59 | 0.556 | 0.574 | 0.498 |  | 0.613 |  |
| NCI-H460 | 0.102 | 0.102 | 0.12 | 0.0814 | 0.692 | 0.603 | 0.665 | 0.645 | 0.79 | 0.693 | 0.576 | 0.757 | 0.636 | 1.02 | 0.433 | 0.414 | 0.35 | 0.31 | 0.266 | 0.0866 |
| NCI-H522 | 0.988 | 0.854 | 0.834 | 0.947 | 0.765 | 0.665 | 0.572 | 0.857 | 0.647 | 0.754 | 0.924 | 0.787 | 0.9 | 0.794 | 0.972 | 0.887 | 0.779 | 0.757 | 0.816 | 0.893 |
| NCI-H647 | 0.376 | 0.364 | 0.353 | 0.285 | 0.703 | 0.617 | 0.69 | 0.551 | 0.787 | 0.449 | 0.32 | 0.583 | 0.36 | 0.539 | 0.218 | 0.17 | 0.141 | 0.153 | 0.153 | 0.269 |
| NCI-H727 | 0.615 | 0.678 | 0.657 | 0.667 | 0.785 | 0.425 | 0.54 | 0.528 | 0.699 | 0.488 | 0.554 | 0.629 | 0.738 | 0.584 | 0.357 | 0.421 | 0.394 |  | 0.346 | 0.636 |
| NCI-H838 | 0.192 | 0.189 | 0.203 | 0.183 | 0.5 | 0.361 | 0.436 | 0.38 | 0.493 | 0.929 | 0.97 | 0.963 | 0.926 | 1.06 | 0.259 | 0.28 | 0.245 | 0.234 | 0.229 | 0.188 |
| NCI-H1355 | 0.376 | 0.283 | 0.301 | 0.257 | 0.42 | 0.384 | 0.492 | 0.432 | 0.492 | 0.799 | 0.833 | 0.845 | 0.769 | 0.735 | 0.502 | 0.409 | 0.386 | 0.414 | 0.445 | 0.249 |
| NCI-H1395 |  | 0.617 | 0.62 | 0.603 | 0.595 | 0.595 | 0.736 | 0.581 | 0.633 | 0.4 | 0.378 | 0.386 | 0.405 | 0.386 | 0.407 | 0.419 | 0.371 | 0.399 | 0.386 |  |
| NCI-H1437 | 0.325 | 0.326 | 0.218 | 0.172 | 0.905 | 0.832 | 0.872 | 0.846 | 0.847 | 1.14 | 1.13 | 1.07 | 1.08 | 1.03 | 0.545 | 0.474 | 0.401 | 0.349 | 0.45 | 0.217 |
| NCI-H1651 | 0.534 | 0.513 | 0.513 | 0.514 | 0.73 | 0.683 | 0.725 | 0.601 | 0.674 | 0.466 | 0.416 | 0.481 | 0.467 | 0.533 | 0.37 | 0.506 | 0.425 | 0.322 | 0.326 | 0.569 |
| NCI-H1666 | 0.642 | 0.68 | 0.591 | 0.646 | 1.01 | 0.86 | 0.88 | 0.825 | 0.855 | 0.836 | 0.816 | 0.879 | 0.865 | 0.84 | 0.808 | 0.81 | 0.682 | 0.588 | 0.542 | 0.612 |
| NCI-H1734 | 0.38 | 0.362 | 0.33 | 0.355 | 0.586 | 0.57 | 0.656 | 0.623 | 0.644 | 0.64 | 0.573 | 0.56 | 0.579 | 0.668 | 0.421 | 0.494 | 0.474 | 0.461 | 0.424 | 0.313 |
| NCI-H1755 | 0.433 | 0.437 | 0.441 | 0.443 | 0.772 | 0.783 | 0.724 | 0.674 | 0.894 | 0.509 | 0.435 | 0.454 | 0.524 | 0.47 | 0.39 | 0.622 | 0.391 | 0.362 | 0.401 | 0.424 |
| NCI-H1792 |  | 0.589 | 0.637 | 0.669 | 0.785 | 0.652 | 0.563 | 0.679 | 0.919 | 0.72 | 0.629 | 0.777 | 0.755 | 1.03 |  | 1.17 | 0.641 | 0.533 | 0.639 | 0.535 |
| NCI-H1793 | 0.278 | 0.3 | 0.319 | 0.206 | 0.348 | 0.198 | 0.349 | 0.289 | 0.312 | 0.514 | 0.394 | 0.565 | 0.304 | 0.486 |  | 0.466 | 0.4 | 0.403 | 0.393 | 0.348 |
| NCI-H1915 | 0.532 | 0.517 | 0.522 | 0.452 | 0.615 | 0.653 | 0.65 | 0.64 | 0.756 | 0.743 | 0.671 | 0.71 | 0.713 | 0.717 | 0.284 | 0.295 |  |  | 0.276 |  |
| NCI-H1944 | 0.326 | 0.303 | 0.277 | 0.284 | 0.389 | 0.404 | 0.42 | 0.424 | 0.392 | 0.586 | 0.441 | 0.506 | 0.447 | 0.541 | 0.217 | 0.214 | 0.217 | 0.173 | 0.196 | 0.233 |
| NCI-H1975 | 0.573 | 0.435 | 0.32 | 0.339 | 0.813 | 0.744 | 0.714 | 0.673 | 0.711 | 0.743 | 0.733 | 0.698 | 0.715 | 0.816 | 0.257 | 0.242 | 0.2 | 0.214 | 0.2 | 0.302 |
| NCI-H1993 | 0.585 | 0.542 | 0.506 | 0.46 | 0.549 | 0.573 | 0.582 | 0.481 | 0.484 | 0.819 | 0.933 | 0.746 | 0.883 | 0.818 | 0.531 | 0.532 | 0.581 | 0.559 | 0.608 | 0.54 |
| NCI-H2085 | 0.499 | 0.432 | 0.449 | 0.444 | 0.827 | 0.691 | 0.857 | 0.77 | 0.66 | 1.04 | 0.908 | 1.03 | 0.983 | 0.952 | 0.205 | 0.262 | 0.222 | 0.268 | 0.174 | 0.446 |
| NCI-H2087 | 0.219 | 0.198 | 0.245 | 0.207 | 0.622 | 0.558 | 0.696 | 0.562 | 0.831 | 1.37 | 1.42 | 1.47 | 1.25 | 1.43 | 0.982 | 0.869 | 0.83 |  | 0.862 | 0.195 |
| NCI-H2126 | 0.333 | 0.381 | 0.356 | 0.373 | 0.685 | 0.766 | 0.733 | 0.643 | 0.667 | 0.936 | 0.997 | 0.996 | 0.97 | 1.01 | 0.392 | 0.48 | 0.431 | 0.451 | 0.391 | 0.302 |
